Columns and labels:
[1] = In vitro metabolic stability, dog liver microsomes; type: in vitro ADME; settings: pooled liver microsomes, NADPH, 37 °C, 0 and 30 min
SK2 = molecular target: T1, SK2 (Homo sapiens, UniProt Q9NRA0); assay: SK2 activity assay (Adapta screening system); settings: read-out: SK2 inhibitory efficacy
T1 sequence (Q9NRA0 1-654): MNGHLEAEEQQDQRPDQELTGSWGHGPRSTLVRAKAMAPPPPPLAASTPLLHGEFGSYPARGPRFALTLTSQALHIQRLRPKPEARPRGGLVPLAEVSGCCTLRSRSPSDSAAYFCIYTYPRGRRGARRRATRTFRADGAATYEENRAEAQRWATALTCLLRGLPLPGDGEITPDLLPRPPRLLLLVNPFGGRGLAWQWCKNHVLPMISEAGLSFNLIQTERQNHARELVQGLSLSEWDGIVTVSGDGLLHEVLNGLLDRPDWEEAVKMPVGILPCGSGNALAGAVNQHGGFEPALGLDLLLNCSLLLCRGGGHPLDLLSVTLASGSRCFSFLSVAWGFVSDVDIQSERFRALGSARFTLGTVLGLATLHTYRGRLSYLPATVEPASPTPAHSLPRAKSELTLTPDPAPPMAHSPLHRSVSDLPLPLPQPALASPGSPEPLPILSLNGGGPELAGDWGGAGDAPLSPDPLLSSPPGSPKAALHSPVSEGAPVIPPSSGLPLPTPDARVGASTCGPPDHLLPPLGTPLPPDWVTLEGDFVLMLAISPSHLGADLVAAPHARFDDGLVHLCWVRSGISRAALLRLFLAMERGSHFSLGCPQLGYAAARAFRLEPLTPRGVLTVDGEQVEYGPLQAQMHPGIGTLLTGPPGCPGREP

A549 cells [2] = assay: Western blotting of apoptosis-related proteins; type: cell-based, human; settings: 5 and 10 μM, 24 h
Experimental: Western blotting measured changes in apoptosis-related proteins (PARP, BAX, BCL-2, Caspase-3). A549 cells (1 × 10^6 cells per well in 6-well plates) were incubated for 24 h. Cells were treated with concentrations of the compounds and incubated for 24 h. Then, cells were dissolved on ice for two hours with a lysis buffer containing a mixture of protease and phosphatase inhibitors. The lysate was centrifuged at 12,000× g for 15 min at 4 °C, and the supernatant was collected. Protein concentrations were measured using a bicinchoninic acid protein assay kit. Total protein was separated by 8–10% sodium dodecyl sulfate–polyacrylamide gel electrophoresis (SDS-PAGE) and transferred onto polyvinylidene fluoride (PVDF) membranes. After being blocked with 5% skim milk, membranes were probed overnight at 4 °C with primary antibodies against SK1, SK2, PARP, BAX, Bcl-2, Caspase-3, and β-actin. Then, the membranes were incubated with subsequent secondary antibodies at room temperature. Then, the protein expressions were measured by Amersham Imager 680 (GE Healthcare, Leiden, WZ, The Netherlands).

[3] = test system: A549 cell-induced tumor xenograft; assay: A549 tumor xenograft in BALB/c nude mice; type: in vivo; settings: vs control group
Experimental: Five-week-old BALB/c-nu/nu male mice were purchased from Orient Bio Inc. (Seongnam, Gyeonggi-do, Korea). The mice were housed in a climate-controlled room (22 ± 2 °C, 50 ± 10% relative humidity) and specific pathogen-free conditions with a 12 h light/dark cycle and adapted for a week with free access to food and water. Cages, bedding, and drinking water were autoclaved and changed regularly. The cancer cell suspension {3 × 10^7 cells/ 150 μL phosphate-buffered saline (PBS)} was inoculated subcutaneously into the right flank. Measurable tumors were found 7–8 days after cell inoculation, and tumors grew in 90% of the injection site two weeks later. The mice were randomly divided into test groups (12 mice per group) when the tumor volume reached 100 mm^2 about two weeks after the inoculation (experimental day 0). The control group (vehicle-treated group) and Compound 4 (5 mg/kg) were administered i.p. 3 times a week. The formulation of Compound 4 was prepared in a mixture of 10% DMSO + 90% PBS. The tumor growth rate and body weights in each of the two groups were measured every three days using a Vernier caliper and a digital weighing balance, respectively. Tumor volume was calculated as l × b^2 × 0.52, where l is the length and b is the width. Four weeks after treatment, blood samples were drawn from the orbital sinus under anesthesia, the mice were sacrificed by cervical dislocation, and the tumors were dissected for further examination.
The paraffin-embedded tumor specimens were deparaffinized with xylene and a series of different alcohol concentrations, rehydrated, and antigen retrieval was carried out with sodium citrate buffer (0.05 M with PH 6). After blocking with 5% BSA, the slides were incubated overnight at 4 °C with KI67 (Cell Signaling Technology, Danvers, MA, USA), Caspase-3 (Abcam, Cambridge, UK), and S1P antibodies (Echelon Biosciences inc, Salt Lake City, UT). The slides were washed with 1× TBST (TBST with PH 8.4) plus 0.5 percent Triton X-100 (Sigma-Aldrich, St. Louis, MO, USA), then secondary antibodies were added in 1:500 ratios (Invitrogen-Alexa Fluor plus 555, 488, and Alexa FluorTM546), and nuclear staining was performed with Hoechst (Invitrogen, Carlsbad, CA, USA), mounted with a flurosave reagent (EMD Millipore Crop, Billerica, MA, USA). Stain sections were observed and photographed using a confocal microscope (Carl-Zeiss-LSM710NLO and LSM780NLO), and results were analyzed using the Carl-Zeiss ZEN2 software and quantification was done by using the ImageJ software, respectively.

A549 cells [4] = assay: Mitochondrial membrane potential measurement (JC-10); type: cell-based, human; settings: 10 μM, 24 h
Experimental: To access the mechanism of cell death, Mitochondrial Membrane Potential (MMP) was performed using JC-10 cationic dye. […] Cells were collected, and 20 μM JC-10 dye prepared in HBSS solution (0.14 M NaCl, 0.005 M KCl, 0.001 M CaCl2, 0.005 M MgSO4-7H2O, 0.0004 M MgSO4-6H2O, 0.0003 M Na2HPO4-2H2O, 0.0004 M KH2PO4, 0.006 M D-glucose, 0.004 M NaHCO3, 0.002 M HEPES, and 0.02% Pluronic® F-127) was added to the cell for 30 min and mixed. The samples were protected from light and measured by using the MACS Quant Analyzer 10 Flow cytometer.

[5] = In vitro metabolic stability, rat liver microsomes; type: in vitro ADME; settings: pooled liver microsomes, NADPH, 37 °C, 0 and 30 min
A549 cells [6] = assay: Colony formation assay; type: cell-based, human; settings: 5 and 10 μM
Experimental: A549 cells (1 × 10^3 cells/well) were seeded into six-well plates and then each compound was treated at 5 and 10 μM for 12 h. The medium was changed every two days, and the cells were cultured in a fresh medium for 10 days. The obtained colonies were fixed with 25% glutaraldehyde for 20 min and then stained with 0.1% crystal violet for 15 min.

[7] = immunohistochemistry, 5 mg/kg i.p.

Structure (SMILES): Cc1cc(CN(Cc2cc(C)cc(CS(=O)(=O)c3ccccc3)c2)c2ccc(CCN3CCC(CO)CC3)cc2)cc(CS(=O)(=O)c2ccccc2)c1 [Compound 4, (1-(4-(Bis(3-methyl-5-((phenylsulfonyl)methyl)benzyl)amino)phenethyl)piperidin-4-yl)methanol]
- MS DLM [1]: 26.1
- inhibition at 10 µM (SK2): 49%
- levels of PARP, Caspase-3 and cleaved PARP (A549 cells [2]): levels of PARP and Caspase-3 were decreased and cleavage of PARP was increased
- tumor volume ([3]; 5 mg/kg i.p. 3 times a week, 29 days): statistically significant inhibitory effect on the tumor volume
- tumor weight ([3]; 5 mg/kg i.p. 3 times a week, day 29): significant decrease in the tumor weight
- weight of animals ([3]; 5 mg/kg i.p. 3 times a week): no difference in the weight
- KI67 level in tumor sections (proliferation marker) [3, 7]: decrease in the level of KI67
- S1P levels in the tumor section [3, 7]: decreased
- caspase-3 level in tumor sections (apoptosis marker) [3, 7]: increased
- change in mitochondrial membrane potential (MMP), JC-10 (A549 cells [4]): significantly increased compared to that after treatment with PF-543
- MS RLM [5]: 22.9
- colony formation (A549 cells [6]): reduce colony formation in a concentration-dependent manner

Reference: paper PMC9611471 (Pharmaceutics, 2022)
